For nine compounds, IC50, melting point and CDK inhibition results are on record in patent US20040210063A1 (priority 2001, published 2004).

Counter-ions that a name gives are not always drawn.

One data set deals with human GSK-3β (Homo sapiens, UniProt P49841). Put plainly: Assay (I): inhibition of GSK-3, 33P-ATP phosphorylation of a glycogen synthase derived substrate. It is filed as biochemical. The following applies: 35 μM substrate, 0.1 mM 33P-labeled ATP, 60 min at room temperature. The method, then:
Inhibition of GSK-3 by a test compound was evaluated using human GSK-3β and a glycogen synthase derived substrate with the following amino acid sequence:
In brief, GSK-3β was incubated with 35 μM substrate and varying concentrations of test compound in a buffer containing 0.1 mM ^33P-labeled ATP, 10 mM magnesium acetate, 8 mM MOPS pH 7.0, 0.2 mM EDTA, 0.1% dithiothreitol and 0.03% Triton-X100 for 60 min at room temperature. The reaction was performed using 96-well plates. The reaction was terminated by adding 13 μl 2% phosphoric acid to each well, and 10 μl was spotted onto P30 paper which was washed 4 times in 0.5% phosphoric acid to remove non-incorporated ^33P-labeled ATP. After drying the radioactivity was counted in a Wallac. Dose-response profiles were generated, and the IC50 value for inhibition of GSK-3 by the test compound was calculated using a four-parameter logistic function.

In data set [1] the test system is cyclin-dependent kinases (CDKs). The following applies: at the tested concentration; Table I of WO 99/21845; cited from earlier work.

Sequence of human GSK-3β (P49841 whole entry): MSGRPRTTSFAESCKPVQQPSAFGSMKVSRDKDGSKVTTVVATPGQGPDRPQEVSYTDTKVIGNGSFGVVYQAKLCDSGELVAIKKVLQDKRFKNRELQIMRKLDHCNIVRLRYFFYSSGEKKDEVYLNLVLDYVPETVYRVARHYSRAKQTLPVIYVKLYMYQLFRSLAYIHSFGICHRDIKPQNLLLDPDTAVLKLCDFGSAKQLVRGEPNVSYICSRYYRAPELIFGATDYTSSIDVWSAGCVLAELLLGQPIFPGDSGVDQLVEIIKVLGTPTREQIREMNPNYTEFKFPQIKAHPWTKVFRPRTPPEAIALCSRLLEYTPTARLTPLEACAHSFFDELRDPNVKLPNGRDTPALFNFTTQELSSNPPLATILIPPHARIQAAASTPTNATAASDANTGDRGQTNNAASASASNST

On human GSK-3β, `CC(C)(C)OC(=O)NCCCNc1nc(N)c(C(=O)c2cccc(OCc3ccccc3)c2)s1` [Example 6, {3-[4-Amino-5-(3-benzyloxybenzoyl)thiazol-2-ylamino]propyl}carbamic acid tert-butyl ester] gave an IC50 of under 1000 nM. As to `CN1CCN(CCCNc2nc(N)c(C(=O)c3ccc(Cl)s3)s2)CC1` (as salt: hydrochloride) [Example 8, {4-Amino-2-[3-(4-methylpiperazin-1-yl)propylamino]thiazol-5-yl}-(5-chlorothiophen-2-yl)methanone], the melting point lay within 210 to 212 °C. On to `Nc1nc(NCCN2CCCCC2)sc1C(=O)c1ccc(F)cc1` [I(6)], for which the CDK inhibition entry in data set [1] was “No CDK inhibition was observed”. On human GSK-3β, `CC(C)(C)OC(=O)NCCCNc1nc(N)c(C(=O)c2ccc(Cl)s2)s1` [Example 3, 3-[4-Amino-5-(5-chlorothiophene-2-carbonyl)thiazol-2-ylamino]propylcarbamic acid tert-butyl ester] gave an IC50 of under 1000 nM. In turn, `CN1CCN(CCCNc2nc(N)c(C(=O)c3cccc(OCc4ccccc4)c3)s2)CC1` [Example 10, {4-Amino-2-[3-(4-methylpiperazin-1-yl)propylamino]thiazol-5-yl}-(3-benzyloxyphenyl)methanone] displayed an IC50 against human GSK-3β of under 1000 nM.

In turn, `Nc1nc(NCCCN2CCCC2=O)sc1C(=O)c1cccc(OCc2ccccc2)c1` [Example 9] gave a melting point of 184 °C. The same compound returned an IC50 against human GSK-3β of under 1000 nM. Compound `CC(C)(C)OC(=O)N1CCC(Nc2nc(N)c(C(=O)c3cccc(OCc4ccccc4)c3)s2)CC1` [Example 5, 4-[4-Amino-5-(3-benzyloxybenzoyl)thiazol-2-ylamino]piperidine-1-carboxylic acid tert-butyl ester] returned an IC50 at human GSK-3β of under 1000 nM. For `Nc1nc(NCCCN2CCCC2=O)sc1C(=O)c1ccc(Cl)s1` [Example 7, 1-{3-[4-Amino-5-(5-chlorothiophene-2-carbonyl)thiazol-2-ylamino]propyl}pyrrolidin-2-one], the melting point lay within 224 to 225 °C. On human GSK-3β, this compound showed an IC50 of under 1000 nM. In turn, `CN1CCN(CCCNc2nc(N)c(C(=O)c3cccc(OCc4ccccc4)c3)s2)CC1` (as salt: hydrochloride) [Example 10, {4-Amino-2-[3-(4-methylpiperazin-1-yl)propylamino]thiazol-5-yl}-(3-benzyloxyphenyl)methanone] returned a melting point of 99 to 100 °C.

Usually IC50 stands for the concentration at which inhibition is half-maximal. By melting point is commonly meant the temperature, or range, at which the solid turns liquid.
